Values quoted from earlier work in PMC7350276 (Journal of pharmaceutical and biomedical analysis, 2019).
Like-named read-outs stand apart in the source and are kept apart here.

How the values were obtained:
[1] = male rats, I.V. 4 mg/kg
μ-opioid receptors [2] = tested on: μ-opioid receptors
μ-opioid receptors [3] = settings: reversal of morphine-induced inhibition of twitch of the Guinea pig ileum
rabbits [4] = settings: intravenously at doses higher than 10 mg/kg
rabbits [5] = settings: subcutaneous 15–20 mg/kg, co-injected with 0.2 mg/kg adrenaline
[6] = I.V. 5 mg/kg, mean ± R.S.D.

CC[C@@H]1CN2CC[C@@]3(O)C(=Nc4cccc(OC)c43)[C@@H]2C[C@@H]1/C(=C\OC)C(=O)OC [7HMG, 7-hydroxymitragynine]
MRT [1]: 1.18 ± 0.167 h
Functional activity at μ-opioid receptors (μ-opioid receptors [2]; no reference given): potent μ-opioid agonist

corynantheidine
Functional activity at μ-opioid receptors (μ-opioid receptors [3]): antagonist
Effect on hypertensive effects of adrenaline (rabbits [4]): almost fully blocked
Effect on adrenaline-induced mydriasis (rabbits [5]): prevented adrenaline-induced mydriasis

mitragynine [MG]
MRT [6]: 137 ± 18
Functional activity at μ-opioid receptors (μ-opioid receptors [2]): partial agonist
